Test results reported in ChEMBL document CHEMBL3785086, “Design and synthesis of natural product derivatives with selective and improved cytotoxicity based on a sesquiterpene scaffold” (Bioorg Med Chem Lett, 2016).

Experiments:
MCF7 = assay: Cytotoxicity against human MCF7 cells assessed as cell proliferation after 24 hrs by CCK-8 assay; type: functional, cell-based; conditions: MCF7, 24 h
HeLa = assay: Cytotoxicity against human HeLa cells assessed as cell proliferation after 24 hrs by CCK-8 assay; type: functional, cell-based
[1] = Cytotoxicity against human HO8910 cells assessed as cell proliferation after 24 hrs by CCK-8 assay; type: functional, cell-based; conditions: HO-8910, 24 h
A549 = assay: Cytotoxicity against human A549 cells assessed as cell proliferation after 24 hrs by CCK-8 assay; type: functional, cell-based; conditions: A549, 24 h
[2] = Cytotoxicity against human T24 cells assessed as cell proliferation after 24 hrs by CCK-8 assay; type: functional, cell-based; conditions: T-24, 24 h
[3] = Cytotoxicity against human BGC823 cells assessed as cell proliferation after 24 hrs by CCK-8 assay; type: functional, cell-based; conditions: BGC-823, 24 h
[4] = Cytotoxicity against mouse NIH/3T3 cells assessed as cell proliferation after 24 hrs by CCK-8 assay; type: cell-based; conditions: NIH3T3, 24 h

SMILES: C/C(=C\c1cc(-c2ccc(F)nc2)co1)C(N)=O
- IC50 (MCF7): 14.1 µM
- IC50 (HeLa): > 50 µM
- IC50 [1]: 30 µM
- IC50 (A549): > 50 µM
- IC50 [2]: > 50 µM
- IC50 [3]: > 50 µM
- IC50 [4]: > 50 µM

SMILES: C/C(=C\c1ccc(-c2ccc(F)cc2)o1)C(N)=O
- IC50 (MCF7): 0.97 µM
- IC50 (HeLa): 2.03 µM
- IC50 [1]: 0.99 µM
- IC50 (A549): 1.65 µM
- IC50 [2]: 3.32 µM
- IC50 [3]: 0.94 µM
- IC50 [4]: 0.96 µM

SMILES: C/C(=C\c1cc(-c2ccc(C)cc2)cs1)C(N)=O
- IC50 (MCF7): > 50 µM
- IC50 (HeLa): > 50 µM
- IC50 [1]: > 50 µM
- IC50 (A549): > 50 µM
- IC50 [2]: > 50 µM
- IC50 [3]: > 50 µM
- IC50 [4]: > 50 µM

SMILES: C/C(=C\c1cc(-c2ccc3c(c2)OCO3)cs1)C(N)=O
- IC50 (MCF7): 3.05 µM
- IC50 (HeLa): > 50 µM
- IC50 [1]: > 50 µM
- IC50 (A549): > 50 µM
- IC50 [2]: > 50 µM
- IC50 [3]: > 50 µM
- IC50 [4]: > 50 µM

SMILES: C/C(=C\c1cccc(-c2ccc(C)cc2)c1)C(N)=O
- IC50 (MCF7): 6.71 µM
- IC50 (HeLa): 24.8 µM
- IC50 [1]: 26.8 µM
- IC50 (A549): 5.1 µM
- IC50 [2]: 7.65 µM
- IC50 [3]: > 50 µM
- IC50 [4]: > 50 µM

SMILES: C/C(=C\c1cc(-c2ccccc2)cs1)C(N)=O
- IC50 (MCF7): 2.68 µM
- IC50 (HeLa): 12.7 µM
- IC50 [1]: > 50 µM
- IC50 (A549): > 50 µM
- IC50 [2]: > 50 µM
- IC50 [3]: > 50 µM
- IC50 [4]: > 50 µM

SMILES: C/C(=C\c1cc(-c2ccc(C#N)cc2)cs1)C(N)=O
- IC50 (MCF7): 0.24 µM
- IC50 (HeLa): 0.25 µM
- IC50 [1]: 0.13 µM
- IC50 (A549): > 50 µM
- IC50 [2]: > 50 µM
- IC50 [3]: > 50 µM
- IC50 [4]: > 50 µM

SMILES: C/C(=C\c1cc(-c2ccc(F)cc2)cs1)C(N)=O
- IC50 (MCF7): 1.44 µM
- IC50 (HeLa): 20.8 µM
- IC50 [1]: > 50 µM
- IC50 (A549): > 50 µM
- IC50 [2]: > 50 µM
- IC50 [3]: > 50 µM
- IC50 [4]: > 50 µM

SMILES: C/C(=C\c1cc(-c2ccccc2)co1)C(N)=O
- IC50 (MCF7): 3.34 µM
- IC50 (HeLa): 3.28 µM
- IC50 [1]: 42.4 µM
- IC50 (A549): > 50 µM
- IC50 [2]: > 50 µM
- IC50 [3]: > 50 µM
- IC50 [4]: > 50 µM

SMILES: C/C(=C\c1nc(-c2ccc(F)cc2)cs1)C(N)=O
- IC50 (MCF7): 3.3 µM
- IC50 (HeLa): 5.4 µM
- IC50 [1]: 4.45 µM
- IC50 (A549): 13.2 µM
- IC50 [2]: > 50 µM
- IC50 [3]: > 50 µM
- IC50 [4]: > 50 µM

SMILES: C/C(=C\c1cc(-c2ccc(S(C)(=O)=O)cc2)cs1)C(N)=O
- IC50 (MCF7): > 50 µM
- IC50 (HeLa): > 50 µM
- IC50 [1]: > 50 µM
- IC50 (A549): > 50 µM
- IC50 [2]: > 50 µM
- IC50 [3]: > 50 µM
- IC50 [4]: > 50 µM

SMILES: C/C(=C\c1ccc(-c2ccc(C)cc2)o1)C(N)=O
- IC50 (MCF7): > 50 µM
- IC50 (HeLa): 4.59 µM
- IC50 [1]: 1.66 µM
- IC50 (A549): > 50 µM
- IC50 [2]: > 50 µM
- IC50 [3]: > 50 µM
- IC50 [4]: > 50 µM

SMILES: C/C(=C\c1cc(-c2cccnc2)co1)C(N)=O
- IC50 (MCF7): 13.2 µM
- IC50 (HeLa): > 50 µM
- IC50 [1]: 8.64 µM
- IC50 (A549): 6.62 µM
- IC50 [2]: > 50 µM
- IC50 [3]: > 50 µM
- IC50 [4]: > 50 µM

SMILES: C/C(=C\c1cc(-c2ccc(C)nc2)co1)C(N)=O
- IC50 (MCF7): 10.2 µM
- IC50 (HeLa): > 50 µM
- IC50 [1]: > 50 µM
- IC50 (A549): > 50 µM
- IC50 [2]: > 50 µM
- IC50 [3]: > 50 µM
- IC50 [4]: > 50 µM

SMILES: COc1ccc(-c2csc(/C=C(\C)C(N)=O)c2)cc1
- IC50 (MCF7): > 50 µM
- IC50 (HeLa): > 50 µM
- IC50 [1]: > 50 µM
- IC50 (A549): > 50 µM
- IC50 [2]: > 50 µM
- IC50 [3]: > 50 µM
- IC50 [4]: > 50 µM

SMILES: C=Cc1ccc(-c2csc(/C=C(\C)C(N)=O)c2)cc1
- IC50 (MCF7): > 50 µM
- IC50 (HeLa): > 50 µM
- IC50 [1]: > 50 µM
- IC50 (A549): > 50 µM
- IC50 [2]: > 50 µM
- IC50 [3]: > 50 µM
- IC50 [4]: > 50 µM

SMILES: C/C(=C\c1cc(-c2ccc([N+](=O)[O-])cc2)cs1)C(N)=O
- IC50 (MCF7): 1.21 µM
- IC50 (HeLa): 2.9 µM
- IC50 [1]: 2.38 µM
- IC50 (A549): 3.5 µM
- IC50 [2]: > 50 µM
- IC50 [3]: > 50 µM
- IC50 [4]: > 50 µM

SMILES: C/C(=C\c1cc(-c2ccccc2C)cs1)C(N)=O
- IC50 (MCF7): 4.92 µM
- IC50 (HeLa): 19.4 µM
- IC50 [1]: 15.2 µM
- IC50 (A549): > 50 µM
- IC50 [2]: > 50 µM
- IC50 [3]: > 50 µM
- IC50 [4]: > 50 µM

SMILES: C/C(=C\c1cc(-c2ccc(Cl)cc2)cs1)C(N)=O
- IC50 (MCF7): 17.1 µM
- IC50 (HeLa): > 50 µM
- IC50 [1]: > 50 µM
- IC50 (A549): > 50 µM
- IC50 [2]: > 50 µM
- IC50 [3]: > 50 µM
- IC50 [4]: > 50 µM

SMILES: C/C(=C\c1cc(-c2ccc(C(F)(F)F)cc2)cs1)C(N)=O
- IC50 (MCF7): 50 µM
- IC50 (HeLa): > 50 µM
- IC50 [1]: > 50 µM
- IC50 (A549): > 50 µM
- IC50 [2]: > 50 µM
- IC50 [3]: > 50 µM
- IC50 [4]: > 50 µM

SMILES: C=C1CCC(c2coc(/C=C(\C)C(N)=O)c2)CC1
- IC50 (MCF7): 8.47 µM
- IC50 (HeLa): 5.01 µM
- IC50 [1]: 18 µM
- IC50 (A549): > 50 µM
- IC50 [2]: > 50 µM
- IC50 [3]: > 50 µM
- IC50 [4]: > 50 µM

SMILES: C/C(=C\c1cccc(-c2ccccc2)c1)C(N)=O
- IC50 (MCF7): 6.54 µM
- IC50 (HeLa): 15.7 µM
- IC50 [1]: 12.6 µM
- IC50 (A549): > 50 µM
- IC50 [2]: > 50 µM
- IC50 [3]: > 50 µM
- IC50 [4]: > 50 µM

SMILES: C/C(=C\c1cc(C2=CCCC2)co1)C(N)=O
- IC50 (MCF7): 15 µM
- IC50 (HeLa): 17.6 µM
- IC50 [1]: > 50 µM
- IC50 (A549): 16.6 µM
- IC50 [2]: > 50 µM
- IC50 [3]: > 50 µM
- IC50 [4]: 49.3 µM

SMILES: C/C(=C\c1cc(C2=CCCCC2)co1)C(N)=O
- IC50 (MCF7): 6.58 µM
- IC50 (HeLa): > 50 µM
- IC50 [1]: > 50 µM
- IC50 (A549): > 50 µM
- IC50 [2]: > 50 µM
- IC50 [3]: > 50 µM
- IC50 [4]: > 50 µM

SMILES: C/C(=C\c1nc(-c2ccccc2)cs1)C(N)=O
- IC50 (MCF7): 2.38 µM
- IC50 (HeLa): 2.77 µM
- IC50 [1]: 3.78 µM
- IC50 (A549): > 50 µM
- IC50 [2]: > 50 µM
- IC50 [3]: > 50 µM
- IC50 [4]: > 50 µM

SMILES: C/C(=C\c1cc(-c2ccc(F)cc2)co1)C(N)=O
- IC50 (MCF7): 2.21 µM
- IC50 (HeLa): 11.8 µM
- IC50 [1]: > 50 µM
- IC50 (A549): 14.9 µM
- IC50 [2]: > 50 µM
- IC50 [3]: > 50 µM
- IC50 [4]: > 50 µM

SMILES: C/C(=C\c1cc(-c2ccc(C)cc2)co1)C(N)=O
- IC50 (MCF7): 1.63 µM
- IC50 (HeLa): 12 µM
- IC50 [1]: 24.2 µM
- IC50 (A549): > 50 µM
- IC50 [2]: > 50 µM
- IC50 [3]: > 50 µM
- IC50 [4]: > 50 µM

SMILES: C/C(=C\c1nc(-c2ccc(C)cc2)cs1)C(N)=O
- IC50 (MCF7): > 50 µM
- IC50 (HeLa): 25 µM
- IC50 [1]: > 50 µM
- IC50 (A549): > 50 µM
- IC50 [2]: > 50 µM
- IC50 [3]: > 50 µM
- IC50 [4]: > 50 µM
